Assay results taken from patent publication US7632855B2, “Pyrazole compounds as HSP90 inhibitors for the treatment of cancer” (Vernalis (Cambridge) Limited, priority 2003, dated 2009).

What follows are compounds tested against T1, human full-length HSP90 (Homo sapiens, UniProt P08238) (assay: Fluorescence Polarisation Assay (competitive displacement of probe RBT0045864-FAM from HSP90)). Settings: E. coli expressed human full-length Hsp90 200 nM; probe RBT0045864-FAM 80 nM; read-out: Hsp90 FP IC50.
T1 construct: E. coli expressed human full-length HSP90 protein, purified >95%; made in house; host or cells: E. coli
T1 sequence (P08238 whole entry): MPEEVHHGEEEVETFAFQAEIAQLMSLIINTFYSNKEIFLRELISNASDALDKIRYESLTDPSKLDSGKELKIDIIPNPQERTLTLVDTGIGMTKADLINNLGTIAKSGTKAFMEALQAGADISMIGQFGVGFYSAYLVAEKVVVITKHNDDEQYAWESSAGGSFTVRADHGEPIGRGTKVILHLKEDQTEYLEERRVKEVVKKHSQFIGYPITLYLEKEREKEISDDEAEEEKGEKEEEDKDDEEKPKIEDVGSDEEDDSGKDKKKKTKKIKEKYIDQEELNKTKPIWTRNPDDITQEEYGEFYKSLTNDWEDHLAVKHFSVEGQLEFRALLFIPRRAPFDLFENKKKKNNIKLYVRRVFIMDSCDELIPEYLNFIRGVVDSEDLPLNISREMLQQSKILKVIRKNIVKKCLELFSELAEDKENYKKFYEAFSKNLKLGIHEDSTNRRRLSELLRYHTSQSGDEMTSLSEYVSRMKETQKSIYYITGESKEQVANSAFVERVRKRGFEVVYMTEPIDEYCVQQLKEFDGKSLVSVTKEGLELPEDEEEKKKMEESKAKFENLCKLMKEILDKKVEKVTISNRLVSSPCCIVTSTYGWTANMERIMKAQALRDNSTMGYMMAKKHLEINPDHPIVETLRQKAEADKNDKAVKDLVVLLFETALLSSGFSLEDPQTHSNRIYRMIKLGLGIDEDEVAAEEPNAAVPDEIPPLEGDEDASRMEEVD
Format: binding
Text: Fluorescence Polarization Assay
Fluorescence polarization {also known as fluorescence anisotropy} measures the rotation of a fluorescing species in solution, where the larger molecule the more polarized the fluorescence emission. When the fluorophore is excited with polarized light, the emitted light is also polarized. The molecular size is proportional to the polarization of the fluorescence emission. The fluoroscein-labelled probe—RBT0045864-FAM—binds to HSP90 {full-length human, full-length yeast or N-terminal domain HSP90 } and the anisotropy {rotation of the probe-protein complex} is measured.
Compound is added to the assay plate, left to equilibrate and the anisotropy measured again. Any change in anisotropy is due to competitive binding of compound to HSP90, thereby releasing probe.
Chemicals are of the highest purity commercially available and all aqueous solutions are made up in AR water. • 1) Costar 96-well black assay plate #3915 • 2) Assay buffer of (a) 100 mM Tris pH7.4; (b) 20 mM KCl; (c) 6mM MgCl2. Stored at room temperature. • 3) BSA (bovine serum albumen) 10 mg/ml (New England Biolabs # B9001S) • 4) 20 mM RBT0045864 (pyrazole) in 100% DMSO stock concentration. Stored in the dark at RT. Made in-house, Kd^˜[…], depending on the protein used. Working concentration is 200 nM diluted in AR water and stored at 4° C. Final concentration in assay 80 nM. • 5) E. coli expressed human full-length HSP90 protein, purified >95% (see, e.g., Panaretou et al., EMBO J., Vol. 17, pp. 4829-4836, 1998) and stored in 50 μL aliquots at −80° C. Protocol • 1) Add 100 μl 1× buffer to wells 11A and 12A (=FP BLNK) • 2) Prepare assay mix—all reagents are kept on ice with a lid on the bucket as the probe is light-sensitive.
• 3) Aliquot 100 μl assay mix to all other wells • 4) Seal plate and leave in dark at room temp for 20 minutes to equilibrate Compound Dilution Plate—1×3 Dilution Series • 1) In a clear 96-well v-bottom plate—{# VWR 007/008/257} add 10 μl 100% DMSO to wells B1 to H11 • 2) To wells A1 to A11 add 17.5 μl 100% DMSO • 3) Add 2.5 μl cpd to A1. This gives 2.5 mM {50×} stock cpd—assuming cpds 20 mM. • 4) Repeat for wells A2 to A10. Control in columns 11 and 12. • 5) Transfer 5 μl from row A to row B—not column 12. Mix well. • 6) Transfer 5 μl from row B to row C. […] In column 11 {provides standard curve} only add compound B11-H11. Add 2 μl of 100 mM standard cpd to wells B12-H12 {is positive control}
The Z′ factor is calculated from zero controls and positive wells. It typically gives a value of 0.7-0.9.

IC50	Structure (SMILES)
< 10 µM	COC(=O)C(C)NC(=O)c1[nH]nc(-c2cc(Cl)c(O)cc2O)c1-c1ccc(OC)cc1 (stereo not shown) [Example 3]
< 10 µM	COc1ccc(-c2c(-c3cc(Cl)c(O)cc3O)n[nH]c2C(=O)NC(C)C(=O)O)cc1 (stereo not shown) [Example 4]
< 10 µM	COC(=O)CNC(=O)c1[nH]nc(-c2cc(Cl)c(O)cc2O)c1-c1ccc(OC)cc1 [Example 6]
< 10 µM	COC(=O)[C@@H](C)NC(=O)c1[nH]nc(-c2cc(Cl)c(O)cc2O)c1-c1ccc(OC)cc1 [Example 7]
< 10 µM	COC(=O)[C@H](C)NC(=O)c1[nH]nc(-c2cc(Cl)c(O)cc2O)c1-c1ccc(OC)cc1 [Example 8]
< 10 µM	COc1ccc(-c2c(-c3cc(Cl)c(O)cc3O)n[nH]c2C(=O)N[C@H](C)C(N)=O)cc1 [Example 9]
< 10 µM	COc1ccc(-c2c(-c3cc(Cl)c(O)cc3O)n[nH]c2C(=O)N[C@@H](C)C(N)=O)cc1 [Example 10]
< 10 µM	COc1ccc(-c2c(-c3cc(Cl)c(O)cc3O)n[nH]c2C(=O)N[C@H](C)C(=O)N2CCN(C)CC2)cc1 [Example 12]
< 10 µM	CNC(=O)[C@@H](C)NC(=O)c1[nH]nc(-c2cc(Cl)c(O)cc2O)c1-c1ccc(OC)cc1 [Example 13]
< 10 µM	COc1ccc(-c2c(-c3cc(Cl)c(O)cc3O)n[nH]c2C(=O)N[C@H](C)C(=O)NC(C)C)cc1 [Example 14]
< 10 µM	COc1ccc(-c2c(-c3cc(Cl)c(O)cc3O)n[nH]c2C(=O)N[C@H](C)C(=O)NCCN(C)C)cc1 [Example 15]
< 10 µM	COc1ccc(-c2c(-c3cc(Cl)c(O)cc3O)n[nH]c2C(=O)N[C@H](C)C(=O)NCCN2CCOCC2)cc1 [Example 16]
< 10 µM	CCNC(=O)[C@@H](C)NC(=O)c1[nH]nc(-c2cc(Cl)c(O)cc2O)c1-c1ccc(OC)cc1 [Example 18]
